Test results taken from US4017485A, “7-Methoxycephalosporin derivatives” (Takeda Chemical Industries, Ltd., priority 1973, dated 1977).
Structures can show the parent of a compound that is named as a salt.

How the values were obtained:
[1] = Solubility; format: physicochemical
[2] = acidity-alkalinity; format: physicochemical
[3] = system: Escherichia coli (clinical isolate*); experiment: Antimicrobial spectrum, minimal inhibitory concentration; format: cell-based; details: clinical isolate resistant to tetracycline, streptomycin, kanamycin, lividomycin, aminobenzylpenicillin and sulbenicillin, Tripticase Soy Agar (BBL), pH 6.5, 37° C, read-out: minimal inhibitory concentrations
Protocol: (§1) Based on the above physical and chemical properties as well as the results of other analyses, the chemical structure of this new antibiotic C-2801-X was determined as follows. [drawing 2] 11. Antimicrobial spectrum: Medium: Tripticase Soy Agar (BBL) (manufactured by Becton Dickenson Co., U.S.A.), pH 6.5, minimal inhibitory concentrations mcg/ml., temperature 37° C
*The strain is resistant to tetracycline, streptomycin, kanamycin,
lividomycin, aminobenzylpenicillin and sulbenicillin.

[4] = system: Proteus vulgaris IFO-3988; experiment: as above; format: cell-based; details: IFO3988, Tripticase Soy Agar (BBL), pH 6.5, 37° C, read-out: minimal inhibitory concentrations
Protocol: as §1
(§2) (The IFO-numbers given above are the accession numbers at the Institute
(§3) for Fermentation, Osaka, Japan).

[5] = system: Proteus mirabilis IFO-3849; experiment: as above; format: cell-based; details: IFO3849, Tripticase Soy Agar (BBL), pH 6.5, 37° C, read-out: minimal inhibitory concentrations
Protocol: as §1, §2, §3

[6] = system: Proteus morganii IFO-3848; experiment: as above; format: cell-based; details: Morganella morganii, IFO3848, Tripticase Soy Agar (BBL), pH 6.5, 37° C, read-out: minimal inhibitory concentrations
Protocol: as §1, §2, §3

[7] = system: Bacillus pumilus IFO-3813; experiment: as above; format: cell-based; details: IFO3813, Tripticase Soy Agar (BBL), pH 6.5, 37° C, read-out: minimal inhibitory concentrations
Protocol: as §1, §2, §3

[8] = system: Pseudomonas aeruginosa IFO-3080; experiment: as above; format: cell-based; details: IFO3080, Tripticase Soy Agar (BBL), pH 6.5, 37° C, read-out: minimal inhibitory concentrations
Protocol: as §1, §2, §3

[9] = system: Salmonella enteritidis IFO-3313; experiment: as above; format: cell-based; details: Salmonella enterica, Tripticase Soy Agar (BBL), pH 6.5, 37° C, read-out: minimal inhibitory concentrations
Protocol: as §1, §2, §3

[10] = system: Salmonella typhimurium IFO-12529; experiment: as above; format: cell-based; details: Salmonella enterica, Tripticase Soy Agar (BBL), pH 6.5, 37° C, read-out: minimal inhibitory concentrations
Protocol: as §1, §2, §3

[11] = system: Aerobacter cloacae IFO-12009; experiment: as above; format: cell-based; details: Enterobacter cloacae, IFO12009, Tripticase Soy Agar (BBL), pH 6.5, 37° C, read-out: minimal inhibitory concentrations
Protocol: as §1, §2, §3

[12] = system: Alcaligenes faecalis IFO-13111; experiment: as above; format: cell-based; details: IFO13111, Tripticase Soy Agar (BBL), pH 6.5, 37° C, read-out: minimal inhibitory concentrations
Protocol: as §1, §2, §3

[13] = system: Klebsiella pneumoniae IFO-3512; experiment: as above; format: cell-based; details: IFO3512, Tripticase Soy Agar (BBL), pH 6.5, 37° C, read-out: minimal inhibitory concentrations
Protocol: as §1, §2, §3

[14] = system: mice; experiment: Acute toxicity test in mice; format: in vivo; details: 400 mg. per kilogram of body weight, intravenously
Protocol: In an acute toxicity test in mice, there occurred no death when 400 mg. of Antibiotic C-2801-X monosodium salt per kilogram of body weight was administered intravenously.

[15] = system: Staphylococcus aureus 209 P (chloramphenicol, streptomycin, tetracycline and erythromycin-resistant); experiment: Antimicrobial spectrum, minimal inhibitory concentration; format: cell-based; details: pH 6.5, read-out: minimal inhibitory concentrations
Protocol: as §1

[16] = system: Staphylococcus aureus 209 P; experiment: as above; format: cell-based; details: Tripticase Soy Agar (BBL), pH 6.5, 37° C, read-out: minimal inhibitory concentrations
Protocol: as §1

[17] = system: Bacillus subtilis PCI 219; experiment: as above; format: cell-based; details: PCI219, Tripticase Soy Agar (BBL), pH 6.5, 37° C, read-out: minimal inhibitory concentrations
Protocol: as §1

[18] = system: Pseudomonas aeruginosa NCTC-10490; experiment: as above; format: cell-based; details: NCTC10490, Tripticase Soy Agar (BBL), pH 6.5, 37° C, read-out: minimal inhibitory concentrations
Protocol: as §1

[19] = system: Escherichia coli NIHJ; experiment: as above; format: cell-based; details: Tripticase Soy Agar (BBL), pH 6.5, 37° C, read-out: minimal inhibitory concentrations
Protocol: as §1

[20] = system: Escherichia coli (clinical isolate, antibiotic-susceptible strain); experiment: as above; format: cell-based; details: Tripticase Soy Agar (BBL), pH 6.5, 37° C, read-out: minimal inhibitory concentrations
Protocol: as §1

[21] = system: Straphylococcus aureus No.87; experiment: as above; format: cell-based; details: Tripticase Soy Agar (BBL), pH 6.5, 37° C, read-out: minimal inhibitory concentrations
Protocol: as §1

[22] = system: Escherichia coli (clinical isolate**); experiment: as above; format: cell-based; details: clinical isolate resistant to sulfonamide, streptomycin and sulbenicillin, Tripticase Soy Agar (BBL), pH 6.5, 37° C, read-out: minimal inhibitory concentrations
Protocol: as §1
**The strain is resistant to sulfonamide, streptomycin and sulbenicillin.

[23] = system: Staphylococcus aureaus, Bacillus subtilis, Escherichia coli, Proteus vulgaris, Salmonella typhimurium, aerobic bacteria; experiment: Inhibition of bacterial growth (summary statement); format: cell-based; details: antibiotic C-2801-X and its salts
[24] = Stability under strongly acidic and under alkaline conditions; format: physicochemical

COC(=Cc1ccc(O)c(O)c1)C(=O)OCC1=C(C(=O)O)N2C(=O)C(NC(=O)CCCC(N)C(=O)O)(OC)C2SC1 (stereo not shown) [Antibiotic C-2801-X monosodium salt]
Solubility ([1]; in chloroform): Insoluble
Solubility ([1]; in ethanol): Soluble
Solubility ([1]; in ether): Insoluble
Solubility ([1]; in ethyl acetate): Insoluble
Solubility ([1]; in methanol): Soluble
Solubility ([1]; in water): Soluble
acidity-alkalinity [2]: Amphoteric
MIC [3]: 25 µg/mL
MIC [4]: 12.5 µg/mL
MIC [5]: 3.13 µg/mL
MIC [6]: 25 µg/mL
MIC [7]: 50 µg/mL
MIC [8]: > 100 µg/mL
MIC [9]: 6.25 µg/mL
MIC [10]: 6.25 µg/mL
MIC [11]: 25 µg/mL
MIC [12]: 12.5 µg/mL
MIC [13]: 6.25 µg/mL
death in acute toxicity test [14]: no death
MIC [15]: 50 µg/mL
MIC [16]: 50 µg/mL
MIC [17]: 12.5 µg/mL
MIC [18]: > 100 µg/mL
MIC [19]: 50 µg/mL
MIC [20]: 25 µg/mL
MIC [21]: 50 µg/mL
MIC [22]: 25 µg/mL

COC(=Cc1ccc(O)c(O)c1)C(=O)OCC1=C(C(=O)O)N2C(=O)C(NC(=O)CCCC(N)C(=O)O)(OC)C2SC1 (stereo not shown) [Antibiotic C-2801-X]
Solubility ([1]; in water): water-soluble
acidity-alkalinity [2]: amphoteric
inhibition of growth of bacteria [23]: inhibit the growth
stability [24]: unstable
